Tested on: colorectal tissue transcripts
Test: SAGE of normal, adenoma and cancer colorectal tissue (transcript tag counts)
Parameters: species or system human
Method in brief: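 Tag counts reflect transcript abundance, each mRNA represented by a 15-base tag near its 3′ end. Excluding MHC tags, linkers and duplicate ditags, libraries were compared statistically: two each of normal epithelium, FAP-derived adenomas (>70% neoplastic) and carcinomas.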

[1] = normal colorectal tissue library 1
[2] = normal colorectal tissue library 2

Sequence | AD1 (SAGE tag count) (adenoma library 1) | AD2 (SAGE tag count) (adenoma library 2) | CA1 (SAGE tag count) (cancer library 1) | CA2 (SAGE tag count) (cancer library 2) | NC1 (SAGE tag count) [1] | NC2 (SAGE tag count) [2] | AD1 (SAGE tag count) (SAGE library AD1) | AD2 (SAGE tag count) (SAGE library AD2) | CA1 (SAGE tag count) (SAGE library CA1) | CA2 (SAGE tag count) (SAGE library CA2) | NC1 (SAGE tag count) (SAGE library NC1) | NC2 (SAGE tag count) (SAGE library NC2)
TATGATGAGC (chemistry not fully specified) | 2 | 2 | 1 | 5 | 13 | 21 | – | – | – | – | – | –
GCTCTTCCCC (chemistry not fully specified; the letters are possibly those of the target site) | – | – | – | – | – | – | 1 | 2 | 2 | 0 | 9 | 21
CCAGGGGAGA (chemistry not fully specified) | – | – | – | – | – | – | 24 | 22 | 10 | 20 | 45 | 66
TTTCCTCTCA (chemistry not fully specified) | 6 | 2 | 4 | 3 | 21 | 8 | – | – | – | – | – | –
AGTGGGCTCA (chemistry not fully specified) | – | – | – | – | – | – | 0 | 1 | 0 | 0 | 3 | 8
AACGTGCAGG (chemistry not fully specified) | – | – | – | – | – | – | 13 | 6 | 7 | 8 | 29 | 31
GCGCAGAGGT (chemistry not fully specified) | – | – | – | – | – | – | 1 | 0 | 0 | 1 | 2 | 16
GCCTGGCCAT (chemistry not fully specified) | – | – | – | – | – | – | 4 | 6 | 10 | 14 | 26 | 34
TGGGGAGAGG (chemistry not fully specified) | 20 | 7 | 3 | 7 | 43 | 18 | – | – | – | – | – | –
CTAGCCTCAC (chemistry not fully specified) | – | – | – | – | – | – | 30 | 53 | 36 | 58 | 172 | 90
AAATCTGGCA (chemistry not fully specified) | – | – | – | – | – | – | 2 | 4 | 2 | 0 | 16 | 15
ATTGGAGTGC (chemistry not fully specified) | – | – | – | – | – | – | 15 | 36 | 37 | 19 | 136 | 85
CCTGGAAGAG (chemistry not fully specified) | – | – | – | – | – | – | 11 | 4 | 12 | 16 | 30 | 26
GCCATCCTCC (chemistry not fully specified) | – | – | – | – | – | – | 0 | 1 | 0 | 0 | 9 | 13
CTGTGTGGCT (chemistry not fully specified; the letters are possibly those of the target site) | – | – | – | – | – | – | 1 | 0 | 0 | 0 | 0 | 12
TAATCCCAGC (chemistry not fully specified) | 8 | 7 | 16 | 13 | 37 | 33 | – | – | – | – | – | –
GCAGCTCCTG (chemistry not fully specified) | – | – | – | – | – | – | 3 | 2 | 7 | 3 | 13 | 47
GTGCCTGAGA (chemistry not fully specified) | – | – | – | – | – | – | 2 | 6 | 7 | 3 | 18 | 15
TCACAGTGCC (chemistry not fully specified) | 3 | 1 | 3 | 4 | 26 | 7 | – | – | – | – | – | –
GAGCACCGTG (chemistry not fully specified) | – | – | – | – | – | – | 1 | 0 | 0 | 1 | 7 | 4
GCTGCCCTTG (chemistry not fully specified) | – | – | – | – | – | – | 13 | 6 | 6 | 18 | 44 | 6
GACCAGTGGC (chemistry not fully specified) | – | – | – | – | – | – | 4 | 0 | 2 | 0 | 21 | 44
GGAAGAGCAC (chemistry not fully specified) | – | – | – | – | – | – | 1 | 1 | 2 | 5 | 21 | 11
TCTGAATTAT (chemistry not fully specified) | 0 | 0 | 1 | 0 | 24 | 16 | – | – | – | – | – | –
CTGGCAAAGG (chemistry not fully specified) | – | – | – | – | – | – | 1 | 0 | 0 | 0 | 14 | 22
GGGGCAGGGC (chemistry not fully specified) | – | – | – | – | – | – | 27 | 10 | 15 | 31 | 48 | 64
CCTGCTTGTC (chemistry not fully specified) | – | – | – | – | – | – | 0 | 3 | 0 | 5 | 20 | 23
CAGTGCGTTC (chemistry not fully specified) | – | – | – | – | – | – | 0 | 0 | 3 | 0 | 12 | 3

Source: patent US8029764B2, “Methods for detection of colorectal cancer” (The Johns Hopkins University, priority 2001, dated 2011)
